Results from patent US11759461B2, “Small molecule inhibitors of cancer stem cells and mesenchymal cancer types” (The Scripps Research Institute, priority 2017, dated 2023).
Read-outs that look alike come from different tables or passages of the source.

How the values were obtained:
[1] = biological target: T1, recombinant full length VIM (Homo sapiens, UniProt P08670); assay: In vitro photo-affinity labeling of recombinant proteins with 1-PAP; assay type: binding
T1 construct: 1-PAP labels recombinant full length VIM in vitro
T1 sequence (P08670 whole entry): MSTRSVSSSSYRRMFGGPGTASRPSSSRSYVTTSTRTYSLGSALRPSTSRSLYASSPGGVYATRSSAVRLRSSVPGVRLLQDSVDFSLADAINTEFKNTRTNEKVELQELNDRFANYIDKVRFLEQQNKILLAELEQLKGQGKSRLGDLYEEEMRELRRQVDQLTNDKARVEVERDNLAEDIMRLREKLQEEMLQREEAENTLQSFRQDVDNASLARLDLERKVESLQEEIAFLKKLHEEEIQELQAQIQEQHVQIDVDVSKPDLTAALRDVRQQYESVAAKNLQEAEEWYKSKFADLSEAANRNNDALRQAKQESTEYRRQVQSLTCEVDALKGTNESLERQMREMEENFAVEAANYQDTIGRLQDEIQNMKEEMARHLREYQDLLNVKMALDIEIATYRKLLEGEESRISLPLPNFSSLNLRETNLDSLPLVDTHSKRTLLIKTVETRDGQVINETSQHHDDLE
Protocol: To identify the relevant cellular target of Compound 1, we incubated live FOXC2-HMLER cells with 2.5 μM 1-PAP, as prepared in Example 5, for 15 minutes and subjected these cells to UV irradiation. A sample containing both 1-PAP and a 20-fold molar excess of free Compound 1 was used to distinguish specific labeling events.
VIM consists of a long rod domain, which forms a coiled coil in the presence of other VIM molecules, as well as head and tail domains. To identify which portion of the protein was the relevant site of 1-PAP labeling, we expressed these domains as GST fusion proteins. […] VIM is one of four type III intermediate filament proteins, whose members additionally include Peripherin, glial fibrillary acidic protein (GFAP), and Desmin, which share 59%, 61%, and 62% sequence similarity to VIM respectively (SIM alignment, ExPASy) (E. Fuchs et al., Annu. Rev. Biochem. 63 (1994) 345-382).

[2] = test system: FOXC2-expressing HMLER cells; assay: Cell Titer Glo viability of FOXC2-HMLER cells (high throughput screen and 10-point response); assay type: cell-based; conditions: Homo sapiens
Procedure, shortened: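 FOXC2-HMLER cells (HMLER run in parallel) seeded at 1,000 cells/well in MEGM, attached 1 h, then given compound in DMSO (2 μM in the screen). After 72 h, viability was read by Cell Titer Glo luminescence.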

FOXC2-HMLER cells [3] = assay: Confocal imaging of thymidine synced FOXC2-HMLER cells at metaphase; assay type: cell-based, human
Excerpt: Because Compound 1 induces a hyper-phosphorylated VIM phenotype, we sought to determine if Compound 1's engagement of VIM might interfere at an alternative stage of mitosis. We therefore performed time course confocal imaging studies of Compound 1 treated FOXC2-HMLER cells after their release from thymidine blocking-based cell cycle synchronization.
Compound 1 treatment also disrupted the ability of β-tubulin to faithfully form the fine spindle microtubules of the mitotic spindle, instead resulting in a compressed phenotype with radiating projections connecting unaligned chromosomes. To assess the uniqueness of this phenotype, we evaluated the metaphase phenotypes of other chemical inhibitors which have shown to alter mitotic progression. These included inhibitors of centromere-associated protein E (CENP-E, also called kinesin-7, GSK92395), kinesin spindle protein (KSP, also called Eg5, Ispinesib), polo like kinases (PLK1/2/3, BI2536), and aurora kinases (AURKA/B/C, VX-680).

VIM [4] = biological target: T2, VIM (Homo sapiens, UniProt P08670); assay: Immunofluorescent analysis of VIM filamentous architecture in HUVECs; assay type: cell-based; conditions: one-hour treatment
T2 construct: endogenous in cells; host or cells: FOXC2-HMLER
T2 sequence (P08670 whole entry): as above

VIM [5] = biological target: T2, VIM; assay: Western blotting / immunofluorescence of VIM protein status in FOXC2-HMLER cells; assay type: cell-based; conditions: FOXC2-HMLER cells, Western blotting
Protocol: Western blotting was performed essentially as described previously (M. J. Bollong et al. ACS Chem. Biol. 10 (2015) 2193-2198). Cells were collected by brief trypsinization and centrifugation at 500 g for 5 minutes. Cells were lysed by the addition of RIPA buffer with protease and phosphatase inhibitors (Roche). Lysates were incubated on ice for 30 minutes before eliminating insoluble protein content by centrifugation at 12,000 g for 5 minutes at 4° C. Protein concentrations were determined from absorbance values obtained by a Nanodrop instrument. Equal amounts of protein were then mixed with 2× loading buffer (100 mM TRIS-HCl, 1% SDS, 10% glycerol, 0.1% bromophenol blue 10%-mercaptoethanol) and exposed to 95° C. for 5 minutes. Protein was separated by SDS-PAGE using 4-12% Bis-Tris Gels (Invitrogen) and then transferred to PVDF membranes (Invitrogen) using semi-dry transfer. Membranes were blocked for 1 hour at room temperature in 5% non-fat dry milk in TBST (Tris buffered saline with 0.1% Tween 20). Membranes were incubated overnight with primary antibodies in blocking buffer overnight at the dilutions ranging from 1:500 to 1:2000. After 3 washes with TBST, membranes were then exposed to HRP-conjugated secondary antibodies (1:5000 in blocking buffer, Sigma) for one hour followed by one hour of additional washing with TBST. Relative protein content was visualized using film and SuperSignal West Dura Substrate. For VIM degradation blots, 20-60 μg of protein content was loaded per gel lane and the anti-VIM antibody V9 (ab8069) was used to blot for VIM protein content. Phospho-protein blots were performed as above with the exception that primary antibodies were incubated in 5% bovine serum albumin in TBST instead of milk.
We performed Western blotting analysis of FOXC2-HMLER cells treated for 24 hours with Compound 1 with commercially available antibodies targeting specific phosphorylated VIM species (P-S39, P-S56, P-S83).
In contrast, only a small fraction of cells undergoing mitosis stained positive for P-S56-VIM in DMSO-treated controls, consistent with previous reports identifying phosphorylation at S56 as a modification catalyzed by cyclin dependent kinase 1 (CDK1; FIG. 6) (T. Yamaguchi, T. et al., J. Cell Biol. 171 (2005) 431-436.

FOXC2-HMLER cells [6] = assay: Multinucleation of FOXC2-HMLER cells; assay type: cell-based, human; conditions: 250-500 nM, 24 hours
control HMLER cells = assay: Cell Titer Glo viability of control HMLER cells; assay type: cell-based; conditions: Homo sapiens; 72-hour incubation; read-out: control HMLER IC50
Excerpt: An engineered cancer cell line HMLER as an isogenic screening system was employed to identify compounds that are selectively toxic to the FOXC2 positive genotype. HMLER cells are derived from mammary epithelial cells (HMECs), but are virally transformed with the […] oncogene (G12V), human telomerase reverse transcriptase (hTERT), and SV40 large-T antigen (B. Elenbaas, B. et al. Genes Dev. 15 (2001) 50-65). Expression of these genes endows HMLER cells with functional immortality and tumorigenic potential at high seeding number (>10^6 cells; Hollier (2013)). […]
For high throughput screening, FOXC2-HMLER and HMLER cells were plated at 10^3 cells per well in white 384-well plates in 50 μL of MEGM medium (Lonza). […] After 72-hour incubation, 30 μL of a Cell Titer Glo solution (diluted 1:6 in water, Promega) was dispensed into each well and luminance values were recorded using an Envision plate reader. […]
More specifically, in the high throughput screening assay above, each cell line was plated at 1,000 cells per well in 384-well plates, treated for 72 hours with 2 μM of test compound, and the viability of each line was determined in parallel by Cell Titer Glo (Promega) luminance measurements. […]

[7] = scored relative to parent compound 4, 72 hours, read-out: Activity Score, inhibition of FOXC2-expressing HMLER cells by Formula IV compounds

Compound | IC50 [2, 7] | further results
CC1(CC[C@H](NC(=O)CCOCCOCCNC(=O)CCCC[C@@H]2SC[C@@H]3NC(=O)N[C@@H]32)C(=O)NCCOCCOCCOc2cc(Cl)cc(N3CCN(c4cnnc5c(Cl)cccc45)CC3)c2)N=N1 [Compound 1-PAP, N—((S)-1-(3-chloro-5-(4-(8-chlorocinnolin-4-yl)piperazin-1-yl)phenoxy)-11-(2-(3-methyl-3H-diazirin-3-yl)ethyl)-10,13-dioxo-3,6,16,19-tetraoxa-9,12-diazahenicosan-21-yl)-5-((3aS,4S,6aR)-2-oxohexahydro-1H-thieno[3,4-d]imidazol-4-yl)pentanamide] | – | labeling of type III intermediate filament proteins ([1]; VIM vs Peripherin, GFAP, Desmin recombinant preparations): labeled VIM exclusively; labeling of VIM domains expressed as GST fusion proteins ([1]; head, rod and tail domains): binds specifically and potently to the rod domain of VIM
Cc1ccccc1-c1cc(N2CCN(S(=O)(=O)c3cnn(C(F)F)c3C)CC2)ncn1 [Compound 4B] | < 1 µM | –
COc1cccc(-c2cc(N3CCN(S(=O)(=O)c4cnn(C(F)F)c4C)CC3)ncn2)c1 [Compound 4C] | < 1 µM | –
Cc1ccc(C)c(N2CCN(S(=O)(=O)c3c(C)nn(C)c3C)CC2)c1 [Compound 4D] | < 1 µM | –
Cc1ccc(-c2cc(N3CCN(S(=O)(=O)c4ccccc4C)CC3)ncn2)cc1 [Compound 4E] | < 1 µM | –
Cc1cccc(N2CCN(S(=O)(=O)c3c(C)nn(-c4ccc(F)cc4)c3C)CC2)c1C [Compound 4F] | < 1 µM | –
Cc1nn(-c2ccc(Cl)cc2)c(C)c1S(=O)(=O)N1CCN(c2ccccn2)CC1 [Compound 4G] | < 1 µM | –
CC(=O)c1ccc(N2CCN(S(=O)(=O)c3c(C)nn(-c4ccc(C)cc4)c3C)CC2)cc1 [Compound 4H] | < 1 µM | –
Cc1cccc(-c2cc(N3CCN(S(=O)(=O)c4ccccc4C)CC3)ncn2)c1 [Compound 4I] | 1 to 20 µM | –
Cc1nn(-c2ccccc2)c(C)c1S(=O)(=O)N1CCN(c2ccccn2)CC1 [Compound 4J] | 1 to 20 µM | –
Cc1nn(-c2ccc(F)cc2)c(C)c1S(=O)(=O)N1CCN(c2ncccn2)CC1 [Compound 4K] | 1 to 20 µM | –
Cc1ccc(-n2nc(C)c(S(=O)(=O)N3CCN(c4ccccc4)CC3)c2C)cc1 [Compound 4L] | 1 to 20 µM | –
Cc1ccc(-n2nc(C)c(S(=O)(=O)N3CCN(c4ncccn4)CC3)c2C)cc1 [Compound 4M] | 1 to 20 µM | –
Cc1nn(C)c(C)c1S(=O)(=O)N1CCN(c2cccc(Cl)c2)CC1 [Compound 4N] | > 20 µM | –
Cc1cccc(N2CCN(S(=O)(=O)c3c(C)nn(C)c3C)CC2C)c1 (stereo not drawn) [Compound 4O] | > 20 µM | –
Cc1nn(C)c(C)c1S(=O)(=O)N1CCN(c2ccccc2F)CC1 [Compound 4P] | > 20 µM | –
Cc1nn(C)c(C)c1S(=O)(=O)N(CC(=O)N1CCN(c2ncccn2)CC1)c1ccc(C(C)C)cc1 [Compound 4Q] | > 20 µM | –
Cc1cccc(-c2cc(N3CCN(S(=O)(=O)c4ccc(C)cc4C)CC3)ncn2)c1 [Compound 4R] | > 20 µM | –
Cc1cccc(-c2cc(N3CCN(S(=O)(=O)c4cnn(C(F)F)c4C)CC3)ncn2)c1 [Compound 4S] | > 20 µM | –
Cc1c(S(=O)(=O)N2CCN(c3cc(-c4ccc(F)cc4)ncn3)CC2)cnn1C(F)F [Compound 4T] | > 20 µM | –
Cc1ccc(-c2cc(N3CCN(S(=O)(=O)c4ccc(C)cc4C)CC3)ncn2)cc1 [Compound 4U] | > 20 µM | –
Cc1ccccc1S(=O)(=O)N1CCN(c2cc(-c3ccccc3)ncn2)CC1 [Compound 4V] | > 20 µM | –
Cc1ccc(S(=O)(=O)N2CCN(c3cc(-c4ccccc4)ncn3)CC2)c(C)c1 [Compound 4W] | > 20 µM | –
Cc1c(S(=O)(=O)N2CCN(c3cc(-c4ccccc4)ncn3)CC2)cnn1C(F)F [Compound 4X] | > 20 µM | –
COc1ccc(-c2cc(N3CCN(S(=O)(=O)c4cnn(C(F)F)c4C)CC3)ncn2)cc1 [Compound 4Y] | > 20 µM | –
COc1ccc(F)cc1-c1cc(N2CCN(S(=O)(=O)c3cnn(C(F)F)c3C)CC2)ncn1 [Compound 4Z] | > 20 µM | –
Cc1ccc(-c2cc(N3CCN(S(=O)(=O)c4cnn(C(F)F)c4C)CC3)ncn2)cc1 [Compound 4] | < 1 µM | –
CC(C)Oc1ccc(C(=O)N[C@H](CNC(=O)CN(C)C)Cc2ccc(-c3cn4cccc([C@H](C)O)c4n3)cc2)cc1Cl [GSK92395] | – | VIM filamentous structure at metaphase (FOXC2-HMLER cells [3]): did not induce VIM filamentous collapse; chromosome alignment to the metaphase plate (FOXC2-HMLER cells [3]): unaligned chromosome phenotype
CC1=C(CO)C(=O)O[C@@H]([C@@H](C)[C@H]2CC[C@H]3[C@@H]4C[C@H]5O[C@]56[C@@H](O)C=CC(=O)[C@]6(C)[C@H]4CC[C@]23C)C1 [WIF-A, Withaferin A, reference compound] | – | VIM filamentous architecture in HUVECs (VIM [4]): promoted the destruction of fine VIM-containing filamentous structures; lower molecular weight VIM degradation products (VIM [5]): dose-dependent accumulation; chromosome alignment to the metaphase plate (FOXC2-HMLER cells [3]): unaligned chromosomes during metaphase; multinucleated FOXC2-HMLER cells (FOXC2-HMLER cells [6]): significant increase
COc1cccc2c1C(=O)c1c(O)c3c(c(O)c1C2=O)C[C@@](O)(C(=O)CO)C[C@@H]3O[C@H]1C[C@H](N)[C@H](O)[C@H](C)O1 [doxorubicin, reference compound] | – | IC50 ([2]; 72-hour incubation, read-out: FOXC2-HMLER IC50): 0.447 µM; IC50 (control HMLER cells): 0.267 µM
